Tests used:
[1] = tested on: ZEAMA Sileno; assay: Safener seed treatment, pre-emergence herbicide, crop damage; format: in vivo, maize; set-up: key to Reduction [Difference]: % crop damage without safener minus % damage with safener; conditions: for Reduction [%] / Reduction [Difference]: isoxadifen-ethyl 0.25 g a.i./kg seed; for HER effect + SAF: isoxadifen-ethyl seed treatment 0.25 g a.i./kg seed; for HER effect: no safener
Method: (§1) For the safener seed treatment, sufficient seeds of the respective crops (spring wheat, TRZAS; spring barley, HORVS; maize, ZEAMA) were weighed into screw top glass bottles approximately twice the volume of the seeds.
(§2) The specified safeners, formulated as wettable powder (WP) were weighed out so that the specified rates (g a.i./kg seed) would be obtained, dissolved in water (1 ml water per 10 g of seeds), and added to the seeds to produce a slurry.
(§3) The bottles were capped and then placed in an overhead shaker (set at medium speed for ca. 60 minutes) so that the seeds were evenly coated with the slurry. The bottles were uncapped and the seeds were either placed on paper and dried for an interval of 3-4 hours prior to sowing, or directly sown. Seeds were placed in sandy loam soil in pots of a diameter of 7-8 cm, and covered with soil.
(§4) Pre-emergence application of the specified herbicides was done subsequently, on two sets of plants: a) seed treatment with safener, as described above
(§5) The herbicides were formulated as WP and was sprayed onto the soil surface as an aqueous suspension at an equivalent water application rate of 300 l/ha.
(§6) After application, the test plants were kept in the greenhouse under good growth conditions. At intervals up to 4 weeks after application (=28 days after treatment; DAT), % crop damage observed on the treated plants was scored visually in comparison to control plants that had not received any safener or herbicide treatment.
(§7) Values in the table below are mean values of at least 2 replicates.
Reduction[Difference]=herbicide damage without safener−herbicide damage with safener Reduction[%]=(Reduction[Difference]*100)/herbicide damage without safener […]
c) Plant Species, Variety: ZEAMA Sileno, Safener (SAF): Isoxadifen-Ethyl

[2] = tested on: TRZAS Triso; assay: Tank-mix post-emergence crop damage, greenhouse, visual assessment; format: in vivo, spring wheat; conditions: 21 DAT; for Reduction [%] / Reduction [Difference]: isoxadifen-ethyl 50 g a.i./ha; for HER effect: no safener
Method: (§8) Seeds of crops (spring wheat, TRZAS; spring barley, HORVS; maize, ZEAMA) were placed in sandy loam soil in peat pots, covered with soil and cultivated in a greenhouse under good growth conditions. Two to three weeks after sowing, the test plants were treated at the 1 to 3-leaf stage. The herbicide/safener active compound combinations according to the invention, formulated as wettable powders or emulsion concentrates, and, in parallel tests, the correspondingly formulated individual active compounds were sprayed onto the green parts of the plants in various dosages using an amount of water of 300 l/ha (converted).
(§9) The pots were returned under good growing conditions in a glasshouse and a visual assessment of herbicidal effects was made at intervals from 1 to 3 weeks after herbicide application (DAT=days after treatment). Assessment was on a percentage basis in comparison with untreated control plants (0%=no injury, 100%=complete kill).
(§10) Reduction[Difference]=herbicide damage without safener−herbicide damage with safener Reduction[%]=(Reduction[Difference]*100)/herbicide damage without safener
5d) Plant Species, Variety: TRZAS Triso, Safener (SAF): Isoxadifen-Ethyl

[3] = tested on: HORVS Montoya; assay: as above; format: in vivo, spring barley; conditions: 10 DAT; for Reduction [%] / Reduction [Difference]: isoxadifen-ethyl 50 g a.i./ha; for HER effect: no safener
Method: as §8, §9, §10
c) Plant Species, Variety: HORVS Montoya, Safener (SAF): Isoxadifen-Ethyl

[4] = tested on: ZEAMA Sileno; assay: as above; format: in vivo, maize; set-up: key to Reduction [Difference]: % points: herbicide damage without safener − damage with safener; conditions: for HER effect + SAF / Reduction [%] / Reduction [Difference]: Final; for HER effect: no safener, Final assessment
Method: as §8, §9, §10
a) Plant Species, Variety: ZEAMA Sileno, Safener (SAF): Isoxadifen-Ethyl

[5] = tested on: TRZAS Triso; assay: Safener seed treatment, pre-emergence herbicide, crop damage; format: in vivo, spring wheat; set-up: key to Reduction [Difference]: % crop damage without safener minus % damage with safener; conditions: for Reduction [%] / Reduction [Difference]: isoxadifen-ethyl 0.25 g a.i./kg seed; for HER effect + SAF: isoxadifen-ethyl seed treatment 0.25 g a.i./kg seed; for HER effect: no safener
Method: as §1, §2, §3, §4, §5, §6, §7
Reduction[Difference]=herbicide damage without safener−herbicide damage with safener Reduction[%]=(Reduction[Difference]*100)/herbicide damage without safener a) Plant Species, Variety: TRZAS Triso, Safener (SAF): Isoxadifen-Ethyl

[6] = tested on: HORVS Montoya; assay: as above; format: in vivo, spring barley; set-up: key to Reduction [Difference]: % crop damage without safener minus % damage with safener; conditions: HER 15 g a.i./ha pre-emergence; for Reduction [%] / Reduction [Difference]: isoxadifen-ethyl 0.25 g a.i./kg seed; for HER effect + SAF: isoxadifen-ethyl seed treatment 0.25 g a.i./kg seed; for HER effect: no safener
Method: as §1, §2, §3, §4, §5, §6, §7
Reduction[Difference]=herbicide damage without safener−herbicide damage with safener Reduction[%]=(Reduction[Difference]*100)/herbicide damage without safener b) Plant Species, Variety: HORVS Montoya, Safener (SAF): Isoxadifen-Ethyl

[7] = HER 40 g a.i./ha pre-emergence, 14 DAT
[8] = HER 0.25 g a.i./ha + isoxadifen-ethyl 50 g a.i./ha
[9] = HER 2 g a.i./ha + isoxadifen-ethyl 50 g a.i./ha
[10] = HER 2 g a.i./ha, isoxadifen-ethyl 50 g a.i./ha
[11] = HER 5 g a.i./ha pre-emergence, 11 DAT (Interim)
[12] = HER 5 g a.i./ha pre-emergence, 21 DAT (Final)
[13] = HER 8 g a.i./ha, isoxadifen-ethyl 50 g a.i./ha
[14] = HER 32 g a.i./ha, isoxadifen-ethyl 100 g a.i./ha
[15] = HER 15 g a.i./ha pre-emergence, 11 DAT (Interim)
[16] = HER 40 g a.i./ha pre-emergence, 26 DAT
[17] = HER 80 g a.i./ha pre-emergence, 14 DAT
[18] = HER 80 g a.i./ha pre-emergence, 26 DAT
[19] = HER 0.5 g a.i./ha + isoxadifen-ethyl 50 g a.i./ha
[20] = HER 15 g a.i./ha pre-emergence, 21 DAT (Final)

C=CC1(C(=O)NC2COC(C(=O)OC)C2)CC(c2cc(F)cc(F)c2)=NO1 (mixture of isomers) [Example 1.68]
Reduction [%] [1, 7]: 25%
Reduction [Difference] [1, 7]: 23
HER effect + SAF [1, 7]: 70%
HER effect [1, 7]: 93%
HER effect + SAF [2, 8]: 20%
Reduction [%] ([2]; HER 0.25 g a.i./ha): 50%
Reduction [Difference] ([2]; HER 0.25 g a.i./ha): 20
HER effect ([2]; HER 0.25 g a.i./ha): 40%
HER effect + SAF ([2]; HER 1 g a.i./ha + isoxadifen-ethyl 50 g a.i./ha): 70%
Reduction [%] ([2]; HER 1 g a.i./ha): 25%
Reduction [Difference] ([2]; HER 1 g a.i./ha): 23
HER effect ([2]; HER 1 g a.i./ha): 93%
HER effect + SAF [3, 8]: 0%
Reduction [%] ([3]; HER 0.25 g a.i./ha): 100%
Reduction [Difference] ([3]; HER 0.25 g a.i./ha): 20
HER effect ([3]; HER 0.25 g a.i./ha): 20%
HER effect + SAF [4, 9]: 25%
Reduction [%] [4, 10]: 58%
Reduction [Difference] [4, 10]: 35
HER effect ([4]; HER 2 g a.i./ha, 0%=no injury, 100%=complete kill): 60%
Reduction [%] [5, 11]: 44%
Reduction [Difference] [5, 11]: 20
Reduction [%] [5, 12]: 56%
Reduction [Difference] [5, 12]: 25
HER effect + SAF [5, 11]: 25%
HER effect + SAF [5, 12]: 20%
HER effect [5, 11]: 45%
HER effect [5, 12]: 45%
Reduction [%] ([6]; 11 DAT (Interim)): 31%
Reduction [Difference] ([6]; 11 DAT (Interim)): 20
HER effect + SAF ([6]; 11 DAT (Interim)): 45%
HER effect ([6]; 11 DAT (Interim)): 65%

COC(=O)C1C=CC(NC(=O)C2(C(F)(F)F)CC(c3cccc(F)c3)=NO2)C1 (centres unmarked) [Example 1.18]
Reduction [%] [1, 7]: 63%
Reduction [Difference] [1, 7]: 25
HER effect + SAF [1, 7]: 15%
HER effect [1, 7]: 40%
HER effect + SAF ([4]; HER 8 g a.i./ha + isoxadifen-ethyl 50 g a.i./ha): 25%
Reduction [%] [4, 13]: 73%
Reduction [Difference] [4, 13]: 69
HER effect ([4]; HER 8 g a.i./ha): 94%
HER effect + SAF ([4]; HER 32 g a.i./ha + isoxadifen-ethyl 100 g a.i./ha): 20%
Reduction [%] [4, 14]: 79%
Reduction [Difference] [4, 14]: 77
HER effect ([4]; HER 32 g a.i./ha): 97%
Reduction [%] [5, 15]: 67%
Reduction [Difference] [5, 15]: 30
HER effect + SAF [5, 15]: 15%
HER effect [5, 15]: 45%
Reduction [%] ([6]; 11 DAT (Interim)): 50%
Reduction [Difference] ([6]; 11 DAT (Interim)): 20
Reduction [%] ([6]; 21 DAT (Final)): 88%
Reduction [Difference] ([6]; 21 DAT (Final)): 35
HER effect + SAF ([6]; 11 DAT (Interim)): 20%
HER effect + SAF ([6]; 21 DAT (Final)): 5%
HER effect ([6]; 11 DAT (Interim)): 40%
HER effect ([6]; 21 DAT (Final)): 40%

C=CC1(C(=O)NC2C=CC(C(=O)OC)C2)CC(c2cc(F)cc(F)c2)=NO1 (centres unmarked) [Example 1.26]
Reduction [%] [1, 16]: 90%
Reduction [Difference] [1, 16]: 45
HER effect + SAF [1, 16]: 5%
HER effect [1, 16]: 50%
Reduction [%] [1, 17]: 36%
Reduction [Difference] [1, 17]: 25
Reduction [%] [1, 18]: 79%
Reduction [Difference] [1, 18]: 55
HER effect + SAF [1, 17]: 45%
HER effect + SAF [1, 18]: 15%
HER effect [1, 17]: 70%
HER effect [1, 18]: 70%
HER effect + SAF [2, 19]: 10%
Reduction [%] ([2]; HER 0.5 g a.i./ha): 75%
Reduction [Difference] ([2]; HER 0.5 g a.i./ha): 30
HER effect ([2]; HER 0.5 g a.i./ha): 40%
HER effect + SAF [3, 19]: 10%
Reduction [%] ([3]; HER 0.5 g a.i./ha): 75%
Reduction [Difference] ([3]; HER 0.5 g a.i./ha): 30
HER effect ([3]; HER 0.5 g a.i./ha): 40%
HER effect + SAF [3, 9]: 50%
Reduction [%] ([3]; HER 2 g a.i./ha): 29%
Reduction [Difference] ([3]; HER 2 g a.i./ha): 20
HER effect ([3]; HER 2 g a.i./ha): 70%
Reduction [%] [5, 15]: 31%
Reduction [Difference] [5, 15]: 20
Reduction [%] [5, 20]: 80%
Reduction [Difference] [5, 20]: 60
HER effect + SAF [5, 15]: 45%
HER effect + SAF [5, 20]: 15%
HER effect [5, 15]: 65%
HER effect [5, 20]: 75%
Reduction [%] ([6]; 21 DAT (Final)): 90%
Reduction [Difference] ([6]; 21 DAT (Final)): 45
HER effect + SAF ([6]; 21 DAT (Final)): 5%
HER effect ([6]; 21 DAT (Final)): 50%

Reference: patent publication US20230217926A1, “SELECTIVE HERBICIDES BASED ON SUBSTITUTED ISOXAZOLIN CARBOXAMIDES AND ISOXADIFEN-ETHYL” (BAYER AKTIENGESELLSCHAFT, priority 2020, published 2023)
